Like-named read-outs stand apart in the source and are kept apart here.
What was measured:
[1] = system: HIV-1 laboratory strain, NL4-3; assay: MT-4 cytoprotection assay; type: cell-based
In short: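 MT-4 cells mock- or batch-infected with NL4-3 (MOI 0.0005) for 2 h, washed, then cultured 4 days with increasing compound concentrations. Viability read by WST-1 tetrazolium reduction: cytoprotection in infected cells, toxicity in mock-infected cells.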

HIV-1NL4-3 = assay: P4-MAGI assay; type: cell-based
In short: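 Cytotoxicity (TC50, 50% growth inhibition) came from WST-1 in uninfected cells. For antiviral activity, compound at rising concentrations was added immediately after HIV-1NL4-3 inoculation (MOI 1, DEAE-Dextran) of P4 cells, CD4+ HeLa cells expressing β-galactosidase from a minimal HIV-1 LTR upon infection.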

[2] = Human immunodeficiency virus 1, NL43, MT4, 96 h, MT-4 cells, four days incubation, WST-1 readout, read-out: MT4 EC50
[3] = Human immunodeficiency virus 1, 24 h, P4 cells, 24 hour incubation, β-galactosidase expression, read-out: P4-MAGI IC50
[4] = Human immunodeficiency virus 1, NL43, less than about 100 nm, read-out: MT-4 assay EC50 (concentration of compound that reduces the virus induced cytopathic effect by 50%)
[5] = Human immunodeficiency virus 1, text statement, less than about 100 nm, read-out: P4-MAGI assay IC50

SMILES: C=C(C)[C@@H]1CC[C@]2(C(=O)NCCc3cccc(C(=O)NCc4ccc(C(=O)NCCN5CCCCC5)cc4)c3)CC[C@]3(C)C(CCC4[C@@]5(C)CC[C@H](O)C(C)(C)C5CC[C@]43C)C12 (some centres unmarked) [Example 172]
- EC50 [1, 2]: 14 nM
- IC50 (HIV-1NL4-3; [3]): 93 nM

SMILES: C=C(C)[C@@H]1CC[C@]2(C(=O)NCc3cccc(C(=O)Nc4ccc5cc(C(=O)O)ccc5c4)c3)CC[C@]3(C)C(CCC4[C@@]5(C)CC[C@H](O)C(C)(C)C5CC[C@]43C)C12 (some centres unmarked) [Example 18]
- EC50 [1, 2]: 6100 nM
- IC50 (HIV-1NL4-3; [3]): 108 nM

SMILES: C=C(C)[C@@H]1CC[C@]2(C(=O)NCCc3cccc(-c4nnc(Cc5ccc(-c6nn[nH]n6)cc5)o4)c3)CC[C@]3(C)C(CCC4[C@@]5(C)CC[C@H](O)C(C)(C)C5CC[C@]43C)C12 (some centres unmarked) [Example 217]
- EC50 [1, 2]: 49 nM
- IC50 (HIV-1NL4-3; [3]): 87 nM

SMILES: C=C(C)[C@@H]1CC[C@]2(C(=O)NCc3ccc(F)c(C(=O)NCCc4ccc(C(=O)O)cc4)c3)CC[C@]3(C)C(CCC4[C@@]5(C)CC[C@H](O)C(C)(C)C5CC[C@]43C)C12 (some centres unmarked) [Example 103]
- EC50 [1, 2]: 7.3 nM
- EC50 [1, 4]: < 100 nM
- IC50 (HIV-1NL4-3; [3]): 69.3 nM
- IC50 (HIV-1NL4-3; [5]): < 100 nM

SMILES: C=C(C)[C@@H]1CC[C@]2(C(=O)NCCc3cccc(C(=O)Nc4cccc(C(=O)O)c4)c3)CC[C@]3(C)C(CCC4[C@@]5(C)CC[C@H](O)C(C)(C)C5CC[C@]43C)C12 (some centres unmarked) [Example 60]
- EC50 [1, 2]: 248 nM
- IC50 (HIV-1NL4-3; [3]): 31 nM
- IC50 (HIV-1NL4-3; [5]): < 100 nM

SMILES: C=C(C)[C@@H]1CC[C@]2(C(=O)NCc3cccc(C(=O)NCc4ccc(OCCCN5CCOCC5)c(C(=O)O)c4)c3)CC[C@]3(C)C(CCC4[C@@]5(C)CC[C@H](O)C(C)(C)C5CC[C@]43C)C12 (some centres unmarked) [Example 124]
- EC50 [1, 2]: 8 nM
- EC50 [1, 4]: < 100 nM
- IC50 (HIV-1NL4-3; [3]): 27.9 nM
- IC50 (HIV-1NL4-3; [5]): < 100 nM

SMILES: C=C(C)[C@@H]1CC[C@]2(C(=O)NCCc3cccc(C(=O)NCc4ccc(C(=O)N[C@H](Cc5cc6ccccc6[nH]5)C(=O)O)cc4)c3)CC[C@]3(C)C(CCC4[C@@]5(C)CC[C@H](O)C(C)(C)C5CC[C@]43C)C12 (some centres unmarked) [Example 166]
- EC50 [1, 2]: 13 nM
- IC50 (HIV-1NL4-3; [3]): 22 nM

SMILES: C=C(C)[C@@H]1CC[C@]2(C(=O)NCc3cccc(C(=O)NCCc4ccc(C(=O)O)cc4)c3)CC[C@]3(C)C(CCC4[C@@]5(C)CC[C@H](O)C(C)(C)C5CC[C@]43C)C12 (some centres unmarked) [Example 9]
- EC50 [1, 2]: 5.5 nM
- EC50 [1, 4]: < 100 nM
- IC50 (HIV-1NL4-3; [3]): 22.3 nM
- IC50 (HIV-1NL4-3; [5]): < 100 nM

SMILES: C=C(C)[C@@H]1CC[C@]2(C(=O)NCc3cccc(C(=O)NCCc4cccc(C(=O)O)c4F)c3)CC[C@]3(C)C(CCC4[C@@]5(C)CC[C@H](O)C(C)(C)C5CC[C@]43C)C12 (some centres unmarked) [Example 36]
- EC50 [1, 2]: 8.5 nM
- EC50 [1, 4]: < 100 nM
- IC50 (HIV-1NL4-3; [3]): 16.4 nM
- IC50 (HIV-1NL4-3; [5]): < 100 nM

SMILES: C=C(C)[C@@H]1CC[C@]2(C(=O)NCc3cccc(CNCc4nc5ccc(C(=O)O)cc5[nH]4)c3)CC[C@]3(C)C(CCC4[C@@]5(C)CC[C@H](O)C(C)(C)C5CC[C@]43C)C12 (some centres unmarked) [Example 80]
- EC50 [1, 2]: 1000 nM
- IC50 (HIV-1NL4-3; [3]): 242 nM

SMILES: C=C(C)[C@@H]1CC[C@]2(C(=O)NCCc3cccc(C(=O)NCc4ccc(OCCCn5cnc(C(=O)OC)c5)cc4)c3)CC[C@]3(C)C(CCC4[C@@]5(C)CC[C@H](O)C(C)(C)C5CC[C@]43C)C12 (some centres unmarked) [Example 235]
- EC50 [1, 2]: 66.5 nM
- IC50 (HIV-1NL4-3; [3]): 18 nM

SMILES: C=C(C)[C@@H]1CC[C@]2(C(=O)NCCc3cccc(C(=O)NCCCCC(=O)O)c3)CC[C@]3(C)C(CCC4[C@@]5(C)CC[C@H](O)C(C)(C)C5CC[C@]43C)C12 (some centres unmarked) [Example 56]
- EC50 [1, 2]: 310 nM
- IC50 (HIV-1NL4-3; [3]): 46.7 nM
- IC50 (HIV-1NL4-3; [5]): < 100 nM

SMILES: C=C(C)[C@@H]1CC[C@]2(C(=O)NCc3cccc(C(=O)NCCCCC(=O)O)c3)CC[C@]3(C)C(CCC4[C@@]5(C)CCC(=O)C(C)(C)C5CC[C@]43C)C12 (some centres unmarked) [Example 141]
- EC50 [1, 2]: 1500 nM
- IC50 (HIV-1NL4-3; [3]): 157 nM

SMILES: C=C(C)[C@@H]1CC[C@]2(C(=O)NCc3cccc(C(=O)NCc4ccc(F)c(C(=O)OC)c4)c3)CC[C@]3(C)C(CCC4[C@@]5(C)CC[C@H](O)C(C)(C)C5CC[C@]43C)C12 (some centres unmarked) [Example 25]
- EC50 [1, 2]: 100 nM
- EC50 [1, 4]: < 100 nM
- IC50 (HIV-1NL4-3; [3]): 40.4 nM
- IC50 (HIV-1NL4-3; [5]): < 100 nM

SMILES: C=C(C)[C@@H]1CC[C@]2(C(=O)NCCc3cccc(S(=O)(=O)NCc4ccc(C(=O)OC)cc4)c3)CC[C@]3(C)C(CCC4[C@@]5(C)CC[C@H](O)C(C)(C)C5CC[C@]43C)C12 (some centres unmarked) [Example 250]
- EC50 [1, 2]: 594 nM
- IC50 (HIV-1NL4-3; [3]): 106 nM

SMILES: C=C(C)[C@@H]1CC[C@]2(C(=O)NCc3cccc(C(=O)NCc4ccc(C(=O)O)c(F)c4)c3)CC[C@]3(C)C(CCC4[C@@]5(C)CC[C@H](O)C(C)(C)C5CC[C@]43C)C12 (some centres unmarked) [Example 34]
- EC50 [1, 2]: 19 nM
- EC50 [1, 4]: < 100 nM
- IC50 (HIV-1NL4-3; [3]): 24.3 nM
- IC50 (HIV-1NL4-3; [5]): < 100 nM

SMILES: C=C(C)[C@@H]1CC[C@]2(C(=O)NCc3ccc(F)c(C(=O)NCc4ccc(C(=O)OC)cc4)c3)CC[C@]3(C)C(CCC4[C@@]5(C)CC[C@H](O)C(C)(C)C5CC[C@]43C)C12 (some centres unmarked) [Example 108]
- EC50 [1, 2]: 100 nM
- EC50 [1, 4]: < 100 nM
- IC50 (HIV-1NL4-3; [3]): 109 nM

SMILES: CC1(C)C2CC[C@]3(C)C(CCC4C5[C@H]([C@@](C)(O)CO)CC[C@]5(C(=O)NCCc5cccc(C(=O)NCc6ccc(C(=O)O)cn6)c5)CC[C@]43C)[C@@]2(C)CC[C@@H]1O (some centres unmarked) [Example 271]
- EC50 [1, 2]: 1810 nM
- IC50 (HIV-1NL4-3; [3]): 119 nM

SMILES: C=C(C)[C@@H]1CC[C@]2(C(=O)NCc3cccc(C(=O)NCc4cc(C(=O)OC)ccc4F)c3)CC[C@]3(C)C(CCC4[C@@]5(C)CC[C@H](O)C(C)(C)C5CC[C@]43C)C12 (some centres unmarked) [Example 24]
- EC50 [1, 2]: > 10000 nM
- IC50 (HIV-1NL4-3; [3]): 186 nM

SMILES: C=C(C)[C@@H]1CC[C@]2(C(=O)NCc3cccc(C(=O)NCCc4ccccc4C(=O)O)c3)CC[C@]3(C)C(CCC4[C@@]5(C)CC[C@H](O)C(C)(C)C5CC[C@]43C)C12 (some centres unmarked) [Example 10]
- EC50 [1, 2]: 1300 nM
- IC50 (HIV-1NL4-3; [3]): 128 nM

SMILES: C=C(C)[C@@H]1CC[C@]2(C(=O)NCCc3cccc(C(=O)NCc4ccc(C(=O)O)cc4)c3F)CC[C@]3(C)C(CCC4[C@@]5(C)CC[C@H](O)C(C)(C)C5CC[C@]43C)C12 (some centres unmarked) [Example 94]
- EC50 [1, 2]: 290 nM
- IC50 (HIV-1NL4-3; [3]): 70.5 nM
- IC50 (HIV-1NL4-3; [5]): < 100 nM

SMILES: C=C(C)[C@@H]1CC[C@]2(C(=O)NCCc3cccc(C(=O)NCc4ccc(OCCCN5CC(C)NC(C)C5)c(C(=O)O)c4)c3)CC[C@]3(C)C(CCC4[C@@]5(C)CC[C@H](O)C(C)(C)C5CC[C@]43C)C12 (some centres unmarked) [Example 241]
- EC50 [1, 2]: 22.5 nM
- IC50 (HIV-1NL4-3; [3]): 5 nM

SMILES: C=C(C)[C@@H]1CC[C@]2(C(=O)NCc3cccc(C(=O)NCc4ccc(C(=O)O)s4)c3)CC[C@]3(C)C(CCC4[C@@]5(C)CC[C@H](O)C(C)(C)C5CC[C@]43C)C12 (some centres unmarked) [Example 35]
- EC50 [1, 2]: 85 nM
- EC50 [1, 4]: < 100 nM
- IC50 (HIV-1NL4-3; [3]): 53.2 nM
- IC50 (HIV-1NL4-3; [5]): < 100 nM

SMILES: C=C(C)[C@@H]1CC[C@]2(C(=O)NCc3cccc(C(=O)NCCCCC(=O)O)c3)CC[C@]3(C)C(CCC4[C@@]5(C)CC[C@H](O)C(C)(C)C5CC[C@]43C)C12 (some centres unmarked) [Example 1]
- EC50 [1, 2]: 615 nM
- IC50 (HIV-1NL4-3; [3]): 49.3 nM

SMILES: C=C(C)[C@@H]1CC[C@]2(C(=O)NCCc3cccc(C(=O)NCc4ccc(OCCCN5CCN(S(=O)(=O)CC)CC5)cc4)c3)CC[C@]3(C)C(CCC4[C@@]5(C)CC[C@H](O)C(C)(C)C5CC[C@]43C)C12 (some centres unmarked) [Example 236]
- EC50 [1, 2]: 30 nM
- IC50 (HIV-1NL4-3; [3]): 19.8 nM

SMILES: C=C(C)[C@@H]1CC[C@]2(C(=O)NCc3cccc(C(=O)NCc4ccc(F)c(C(=O)O)c4)c3)CC[C@]3(C)C(CCC4[C@@]5(C)CC[C@H](O)C(C)(C)C5CC[C@]43C)C12 (some centres unmarked) [Example 27]
- EC50 [1, 2]: 73 nM
- EC50 [1, 4]: < 100 nM
- IC50 (HIV-1NL4-3; [3]): 53.5 nM
- IC50 (HIV-1NL4-3; [5]): < 100 nM

SMILES: C=C(C)[C@@H]1CC[C@]2(C(=O)NCCc3cccc(C(=O)NCc4ccc(C(=O)N5CCNC(C(=O)O)C5)cc4)c3)CC[C@]3(C)C(CCC4[C@@]5(C)CC[C@H](O)C(C)(C)C5CC[C@]43C)C12 (some centres unmarked) [Example 194]
- EC50 [1, 2]: 16 nM
- IC50 (HIV-1NL4-3; [3]): 18 nM

SMILES: C/C(=C/C#N)[C@@H]1CC[C@]2(C(=O)NCCc3cccc(C(=O)NCc4ccc(C(=O)O)cn4)c3)CC[C@]3(C)C(CCC4[C@@]5(C)CC[C@H](O)C(C)(C)C5CC[C@]43C)C12 (some centres unmarked) [Example 269]
- EC50 [1, 2]: 39 nM
- IC50 (HIV-1NL4-3; [3]): 11.4 nM

SMILES: C=C(C)[C@@H]1CC[C@]2(C(=O)NCCc3cccc(C(=O)NCc4ccc(N)cn4)c3)CC[C@]3(C)C(CCC4[C@@]5(C)CC[C@H](O)C(C)(C)C5CC[C@]43C)[C@@H]12 (some centres unmarked) [Example 149]
- EC50 [1, 2]: 88 nM
- IC50 (HIV-1NL4-3; [3]): 23 nM

SMILES: C=C(C)[C@@H]1CC[C@]2(C(=O)NCCc3cccc(C(=O)NCCc4c[nH]c5ccccc45)c3)CC[C@]3(C)C(CCC4[C@@]5(C)CC[C@H](O)C(C)(C)C5CC[C@]43C)C12 (some centres unmarked) [Example 151]
- EC50 [1, 2]: 325 nM
- IC50 (HIV-1NL4-3; [3]): 85 nM
